Structures can show the parent of a compound that is named as a salt. Starred links: 1 amine or outer side, 2 acyl side, 3 side chain; linkers in the order of their positions; H or OH if unused. Non-standard residues stand in square brackets, D forms with d. Residues, ends and D or L forms follow the SMILES beside them. *: point of attachment. X2 = O=C([C@@H](Cc1ccc[n+](Cc2ccccc2)c1)N[*:1])[*:2]; dPhe(4-Cl) = N[C@H](Cc1ccc(Cl)cc1)C(=O)O; X3 = C[S+](C)CC[C@@H](N[*:1])C(=O)[*:2]; X4 = C[S+](C)CC[C@H](N[*:1])C(=O)[*:2]; d2Nal = N[C@H](Cc1ccc2ccccc2c1)C(=O)O; Lys(iPr) = CC(C)NCCCC[C@H](N)C(=O)O; NMeY = CN[C@@H](Cc1ccc(O)cc1)C(=O)O; d3Pal = N[C@H](Cc1cccnc1)C(=O)O; NHCH2CH2SO3H = O=S(=O)(O)CCN*; X1 = O=C(c1ccc[n+]([O-])c1)*; Sar = CNCC(=O)O

The record followed here is US7071165B2, “LHRH antagonist peptides” (Indiana University Research and Technology Corporation, priority 1995, dated 2006).

The test system of one data set is rat mast cells. In words: Histamine release assay, rat mast cells. The procedure:
The term “histamine-releasing activity”, as used herein, refers to the tendency of a compound to release histamine when administered to a subject. The histamine-releasing activity of a compound can be measured with an in vitro assay (described in more detail, infra). […] Histamine-releasing activity was assayed by the method described in U.S. Pat. No. 4,851,385 to Roeske. Briefly, a suspension of rat mast cells was added to increasing concentrations of an LHRH antagonist peptide and incubated for 15 minutes at 37° C. The buffer contained 25 mM PIPES, pH 7.4, NaCl (119 mM), KCl (5 mM), NaOH (40 mM) glucose (5.6 mM), CaCl2 (1 mM) and 0.1% bovine serum albumin.

Another data set deals with ovulation in female rats. In words: Anti-ovulatory activity (AOA) in vivo assay in rats. Also noted: species or system rat. The procedure: As used herein, “LHRH antagonist peptide” is intended to include peptides and peptide analogs which inhibit LHRH activity (i.e., has “LHRH antagonist activity”) in vivo or in vitro. Candidate LHRH antagonist peptides can be assayed, for example, in the animal model described in Corbin and Beattie, Endocrine Res. Commun. 2:1 (1975) (and see infra). In this assay, the LHRH antagonistic activity of a candidate compound is assayed by measuring the antiovulatory activity (AOA) of the compound in rats.
Anti-ovulatory activity (AOA) was measured by an in vivo assay in rats, as described in Corbin and Beattie, Endocrine Res. Commun. 2:1 (1975). In brief, female rats are injected with a candidate LHRH antagonist on the day of proestrus; in general, the candidate LHRH antagonist was dissolved in 0.1% DMSO. The ability of the candidate peptide to inhibit ovulation is measured by determining the number of rats which ovulate. A candidate peptide is considered to have LHRH antagonist qualities if it inhibits ovulation in at least 50% of the treated rats at a dose of 5 μg per rat. Preferred LHRH antagonists inhibit ovulation in at least 50% of rats at a dose of 2 μg per rat, more preferably at a dose of […], and still more preferably at a dose of 0.5 μg per rat.

[1] abbreviates: rat mast cells, 15 minutes at 37° C.

On to `CC(=O)N[C@H](Cc1ccc2ccccc2c1)C(=O)N[C@H](Cc1ccc(Cl)cc1)C(=O)N[C@H](Cc1cccnc1)C(=O)N[C@@H](CO)C(=O)N[C@@H](Cc1ccc(O)cc1)C(=O)N[C@H](CCC(N)=O)C(=O)N[C@@H](CC(C)C)C(=O)N[C@@H](CCCCNC(C)C)C(=O)N1CCC[C@H]1C(=O)N[C@H](C)C(N)=O` [Compound 3341, Ac-D-Nal^1,4-Cl-D-Phe^2, D-Pal^3, D-Gln^6-Lys(iPr)^8, D-Ala^10-LHRH.TFA] (Ac-[d2Nal][dPhe(4-Cl)][d3Pal]SY[dQ]L[Lys(iPr)]P[dA]-NH2), for which the “Histamine-releasing activity, in words” value in the data set on rat mast cells was “very low histamine release”.
On to `CC(=O)N[C@H](Cc1ccc2ccccc2c1)C(=O)N[C@H](Cc1ccc(Cl)cc1)C(=O)N[C@H](Cc1cccnc1)C(=O)N[C@@H](CO)C(=O)N[C@@H](Cc1ccc(O)cc1)C(=O)N[C@H](CC(N)=O)C(=O)N[C@@H](CC(C)C)C(=O)N[C@@H](CCCCNC(C)C)C(=O)N1CCC[C@H]1C(=O)N[C@H](C)C(N)=O` [Compound 3342, Ac-D-Nal^1,4-Cl-D-Phe^2, D-Pal^3, D-Asn^6-Lys(iPr)^8, D-Ala^10-LHRH.TFA] (Ac-[d2Nal][dPhe(4-Cl)][d3Pal]SY[dN]L[Lys(iPr)]P[dA]-NH2), for which the “Histamine-releasing activity, in words” value with rat mast cells was “very low histamine release”.
With `CC(=O)N[C@H](Cc1ccc2ccccc2c1)C(=O)N[C@H](Cc1ccc(Cl)cc1)C(=O)N[C@H](Cc1cccnc1)C(=O)N[C@@H](CO)C(=O)N[C@@H](Cc1ccc(O)cc1)C(=O)N[C@@H](C(=O)N[C@@H](CC(C)C)C(=O)N[C@@H](CCCCNC(C)C)C(=O)N1CCC[C@H]1C(=O)N[C@H](C)C(N)=O)[C@H](C)O` [Compound 3343, Ac-D-Nal^1,4-Cl-D-Phe^2, D-Pal^3, D-Thr^6-Lys(iPr)^8, D-Ala^10-LHRH.TFA] (Ac-[d2Nal][dPhe(4-Cl)][d3Pal]SY[dT]L[Lys(iPr)]P[dA]-NH2), in the data set on rat mast cells, the “Histamine-releasing activity, in words” value is “very low histamine release”.
`CC(=O)N[C@H](Cc1ccc2ccccc2c1)C(=O)N[C@H](Cc1ccc(Cl)cc1)C(=O)N[C@H](Cc1cccnc1)C(=O)N[C@@H](CO)C(=O)N[C@@H](Cc1ccc(O)cc1)C(=O)N[C@H](CCC(=O)NCCS(=O)(=O)O)C(=O)N[C@@H](CC(C)C)C(=O)N[C@@H](CCCCNC(C)C)C(=O)N1CCC[C@H]1C(=O)N[C@H](C)C(N)=O` [Compound 3361, Ac-D-Nal^1,4-Cl-D-Phe^2, D-Pal^3, D-Glu(Taurine)^6-Lys(iPr)^8, D-Ala^10-LHRH.TFA] (Ac-[d2Nal][dPhe(4-Cl)][d3Pal]SY[dE](NHCH2CH2SO3H)L[Lys(iPr)]P[dA]-NH2): the “Histamine-releasing activity, in words” value with rat mast cells is given as “very low histamine release”.
As for `CC(=O)N(C)CC(=O)N[C@H](Cc1ccc(Cl)cc1)C(=O)N[C@H](Cc1ccc2ccccc2c1)C(=O)N[C@@H](CO)C(=O)N[C@@H](Cc1ccc(O)cc1)C(=O)N[C@H](Cc1ccc[n+](Cc2ccccc2)c1)C(=O)N[C@@H](CC(C)C)C(=O)N[C@@H](CCCCNC(C)C)C(=O)N1CCC[C@H]1C(=O)N[C@H](C)C(N)=O` [Compound 3763, Ac-Sar^1,4-Cl-D-Phe^2, D-Nal^3, D-Pal(Bzl)^6, Lys(iPr)^8, D-Ala^10-LHRH.2TFA] (Ac-[Sar][dPhe(4-Cl)][d2Nal]SY[X2]L[Lys(iPr)]P[dA]-NH2), in the data set with rat mast cells, the “Histamine-releasing activity, in words” value is “very little histamine-releasing activity”.
For `CC(=O)N[C@H](Cc1ccc2ccccc2c1)C(=O)N[C@H](Cc1ccc(Cl)cc1)C(=O)N[C@H](Cc1cccnc1)C(=O)N[C@@H](CO)C(=O)N(C)[C@@H](Cc1ccc(O)cc1)C(=O)N[C@H](CCCCNC(=O)c1ccc[n+]([O-])c1)C(=O)N[C@@H](CC(C)C)C(=O)N[C@@H](CCCCNC(C)C)C(=O)N1CCC[C@H]1C(=O)N[C@H](C)C(N)=O` [Compound 3828, Ac-D-Nal^1,4-Cl-D-Phe^2, D-Pal^3, N-Me-Tyr^5, D-Lys(Onic)^8, Lys(iPr)^8, D-Ala^10-LHRH.TFA] (Ac-[d2Nal][dPhe(4-Cl)][d3Pal]S[NMeY][dK](X1)L[Lys(iPr)]P[dA]-NH2), in the data set with rat mast cells, the “Histamine-releasing activity, in words” value is listed as “low histamine releasing activity”.
As for `CC(=O)N[C@H](Cc1ccc2ccccc2c1)C(=O)N[C@H](Cc1ccc(Cl)cc1)C(=O)N[C@H](Cc1c[nH]c2ccccc12)C(=O)N[C@@H](CO)C(=O)N[C@@H](Cc1ccc(O)cc1)C(=O)N[C@H](CC[S+](C)C)C(=O)N[C@@H](CC(C)C)C(=O)N[C@@H](CC[S+](C)C)C(=O)N1CCC[C@H]1C(=O)N[C@H](C)C(N)=O` [Compound 3925, Ac-D-Nal^1,4-Cl-D-Phe^2, D-Trp^3, D-Met(S^+Me)^6, Met(S^+Me)^8, D-Ala^10-LHRH.2TFA] (Ac-[d2Nal][dPhe(4-Cl)][dW]SY[X3]L[X4]P[dA]-NH2), the “Histamine-releasing activity, in words” value with rat mast cells is reported as “low histamine release”.
On to “Ac-D-(or L)-Ada-Ala^1, 4-Cl-D-Phe^2, D-Pal^3, D-Cit^6-Lys(iPr)^8, D-Ala^10-LHRH.TFA [Compound 3368]”, for which the “Histamine release ED50” value in the data set on rat mast cells (setting [1]) is 34 µg/mL. Besides, the “AO activity (AOA): rats which ovulate / rats treated” value with ovulation in female rats (dose 5 μg per rat) is listed as 5/8@5 μg.
As to “Ac-D-Nal^1, 4-Cl-D-Phe^2, D-Pal^3, D-Cit^6-Lys(iPr)^8, Pip^9-D-Ala^10-LHRH.TFA [Compound 3344]”, the “Histamine release ED50” value in the data set with rat mast cells (setting [1]) came out at 32 µg/mL. In the data set on ovulation in female rats (dose 1 μg per rat), the “AO activity (AOA): rats which ovulate / rats treated” value is on record as 9/10@1 μg.
Take “Ac-D-Nal^1, 4-Cl-D-Phe^2, D-Pal^3, D-Cit^6-Lys(iPr)^8, Pip^9-LHRH.TFA [Compound 3363]”: the “Histamine release ED50” value with rat mast cells (setting [1]) turned out to be 25 µg/mL. The “AO activity (AOA): rats which ovulate / rats treated” value in the data set with ovulation in female rats (dose 1 μg per rat) is recorded as 6/8@1 μg.
Take “Ac-D-Nal^1, 4-Cl-D-Phe^2, D-Pal^3, D-Cit^6-Lys(iPr)^8, ProNHEt^9-des-Gly^10-LHRH.TFA [Compound 3365]”: in the data set with rat mast cells (setting [1]), the “Histamine release ED50” value was 24 µg/mL.
Take “Ac-D-Nal^1, 4-Cl-D-Phe^2, D-Pal^3, D-Cit^6-Lys(iPr)^8-LHRH.TFA [Compound 3362]”: the “Histamine release ED50” value in the data set on rat mast cells (setting [1]) stood at 22 µg/mL. For the same molecule, the “AO activity (AOA): rats which ovulate / rats treated” value in the data set on ovulation in female rats (dose 1 μg per rat) is listed as 4/8@1 μg.
Taken in the same sequence, the figures for “Ac-D-Nal^1, 4-Cl-D-Phe^2, D-Pal^3, D-Lys(iPrPic)^6, Lys(iPr)^8, D-Ala^10-LHRH.TFA [Compound 3438]” were 5.6 µg/mL and 2/8@1 μg.
Consider “Ac-D-Nal^1, 4-Cl-D-Phe^2, D-Pal^3, D-Phe(4-NO2)^6-Lys(iPr)^8, D-Ala^10-LHRH.TFA [Compound 3364]”, for which the “Histamine release ED50” value in the data set with rat mast cells (setting [1]) was found to be 14 µg/mL. Besides, the “AO activity (AOA): rats which ovulate / rats treated” value in the data set on ovulation in female rats (dose 1 μg per rat) is given as 6/8@1 μg.
In the case of “Ac-D-Nal^1, 4-Cl-D-Phe^2, D-Pal^3, His^5D-Pal(iPr)^6, Lys(iPr)^8, D-Ala^10-LHRH.2TFA [Compound 3982]”, the “Histamine release ED50” value in the data set with rat mast cells (footnote c: run with Nal arg reference 0.28) stood at 53 µg/mL; in the data set on rat mast cells (footnote d: run with Nal arg reference 0.11) it was 33 µg/mL. The “AO activity (AOA): rats which ovulate / rats treated” value in the data set on ovulation in female rats (dose 1 μg per rat) was 8/8@1.00.
For the molecule “Ac-D-Nal^1, 4-Cl-D-Phe^2, D-Pal^3, Pal^5, D-Pal(iPr)^6, Lys(iPr)^8, D-Ala^10-LHRH.TFA [Compound 3430]”, the “Histamine release ED50” value in the data set on rat mast cells (setting [1]) was 10 µg/mL. The “AO activity (AOA): rats which ovulate / rats treated” value in the data set on ovulation in female rats (dose 1 μg per rat) is 3/8@1 μg.
For “Ac-L-(or D)-Ada-Ala^1, 4-Cl-D-Phe^2, D-Pal^3, D-Cit^6-Lys(iPr)^8, D-Ala^10-LHRH.TFA [Compound 3369]”, the “Histamine-releasing activity, in words” value in the data set with rat mast cells is “low histamine release”. The “Histamine release ED50” value in the data set on rat mast cells (setting [1]) is 93 µg/mL. Further, the “AO activity (AOA): rats which ovulate / rats treated” value with ovulation in female rats (dose 5 μg per rat) was 7/8@5 μg.
